Reference: US20260138978A1, “POSITIVE ALLOSTERIC MODULATORS OF THE MUSCARINIC ACETYLCHOLINE RECEPTOR M1” (Vanderbilt University, priority 2022, published 2026)
pEC50: −log10 of the molar value.

What was measured:
human mAChRM1 [1] = target: T1, human mAChRM1 (Homo sapiens, UniProt P11229); experiment: mAChR M1 cell-based functional assay (calcium mobilization), agonist activity upon compound addition, Emax relative to acetylcholine maximum; settings: for pEC50: calcium mobilization upon compound addition; for Emax: relative to the maximum for acetylcholine
T1 construct: host or cells: CHO-K1
T1 sequence (P11229 1-460): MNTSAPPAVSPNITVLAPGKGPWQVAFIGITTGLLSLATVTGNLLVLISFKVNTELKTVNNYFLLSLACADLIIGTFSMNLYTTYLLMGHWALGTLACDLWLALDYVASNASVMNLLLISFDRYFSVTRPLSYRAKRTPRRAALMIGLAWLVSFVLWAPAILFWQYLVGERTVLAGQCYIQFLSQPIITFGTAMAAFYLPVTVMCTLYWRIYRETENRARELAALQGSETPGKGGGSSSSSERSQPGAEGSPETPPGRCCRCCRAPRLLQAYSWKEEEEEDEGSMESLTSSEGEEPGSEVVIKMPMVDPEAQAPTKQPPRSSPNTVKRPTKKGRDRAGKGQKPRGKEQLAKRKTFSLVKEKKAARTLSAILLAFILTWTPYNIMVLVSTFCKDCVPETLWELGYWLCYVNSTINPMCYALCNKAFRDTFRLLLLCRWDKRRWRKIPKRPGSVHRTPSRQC
Description: Lack of agonist activity may be measured as weak or no increase in calcium fluorescence in mAChRM1-transfected CHO-K1 cells in the presence of the compound, compared to the response of equivalent CHO-K1 cells in the absence of the compound. Lack of mAChRM1 agonist activity may be determined as a percent response relative to acetylcholine. For example, a disclosed compound may have less than or equal to 30%, 25%, 20%, 15%, 10%, 5%, or 1% mAChRM1 agonist activity relative to acetylcholine. A disclosed compound may have substantially no mAChRM1 agonist activity. […] The absence of mAChRM1 agonist activity may contribute to the avoidance of cholinergic adverse effect liability.
(§1) Chinese hamster ovary (CHO-K1) cells stably expressing rat (r)M1 were purchased from the American Type Culture Collection and cultured according to their indicated protocol. CHO cells stably expressing human (h)M2, hM3, and hM5 were described previously (Levey, et al., 1991); hM1 and hM4 cDNAs were purchased from Missouri S&T cDNA Resource; rM4 cDNA was provided by T. I. Bonner (National Institutes of Health, Bethesda, MD). rM2 and rM3 were cloned from a rat brain cDNA library and sequence verified. hM1, rM2, rM3, hM4, and rM4 cDNAs were used to stably transfect CHO-K1 cells purchased from the American Type Culture Collection using Lipofectamine 2000. To make stable rM2, hM2, rM3, hM4. and rM4 cell lines for use in calcium mobilization assays, these cells also were stably transfected with a chimeric G-protein (Gqi5) (provided by B. R. Conklin, University of California, San Francisco) using Lipofectamine 2000. rM1, hM1, rM3, hM3, rM5, and hM5 cells were grown in Ham's F-12 medium containing 10% heat-inactivated fetal bovine serum (FBS), 20 mM HEPES, and 50 μg/mL G418 sulfate. rM2-Gqi5, hM2-Gqi5, and hM4-Gqi5 cells were grown in the same medium also containing 500 µg/mL Hygromycin B. Stable rM4-Gqi5 cells were grown in DMEM containing 10% heat-inactivated FBS, 20 mM HEPES, 400 μg/mL G418 sulfate, and 500 μg/mL Hygromycin B.
(§2) For high throughput measurement of agonist-evoked increases in intracellular calcium, CHO-K1 cells stably expressing muscarinic receptors were plated in growth medium lacking G418 and hygromycin at 15,000 cells/[…] in Greiner 384-well black-walled, tissue culture (TC)-treated, clear-bottom plates (VWR). Cells were incubated overnight at 37° C. and 5% CO2. The next day, cells were washed using an ELX 405 (BioTek) with four washes (80 μL) of assay buffer then aspirated to 20 μL. Next, 20 μL of 16 μM Fluo-4/acetoxymethyl ester (Invitrogen, Carlsbad, CA) prepared as a 2.3 mM stock in DMSO and mixed in a 1:1 ratio with 10% (w/v) Pluronic F-127 and diluted in assay buffer was added to the wells and the cell plates were incubated for 50 min at 37° C. and 5% CO2. Dye was removed by washing with the ELX 405 (four 80 μL washes of assay buffer) then aspirated to 20 μL. Compound master plates were formatted in an 11 point CR^c format (1:3 dilutions) in 100% DMSO with a starting concentration of 10 mM using the BRAVO liquid handler (Agilent). Test compound CRCs were then transferred to daughter plates (240 nL) using the Echo acoustic plate reformatter (Labcyte, Sunnyvale, CA) and then diluted into assay buffer ([…]) to a 2× stock using a Thermo Fisher Combi (Thermo Fisher Scientific, Waltham, MA).
Calcium flux was measured using the Functional Drug Screening System (FDSS) 6000 (Hamamatsu Corporation, Tokyo, Japan) as an increase in the fluorescent static ratio. Compounds were applied to cells (20 μL, 2×) using the automated system of the FDSS 6000 at 4 s into the 300 s protocol and the data were collected at 1 Hz. […] Agonist activity was analyzed as a concentration-dependent increase in calcium mobilization upon compound addition. Emax values for agonist activity are expressed relative to the maximum for acetylcholine. Positive allosteric modulator activity was analyzed as a concentration-dependent increase in the EC20 acetylcholine response. […]

human mAChRM1 [2] = target: T1, human mAChRM1; experiment: mAChR M1 cell-based functional assay (calcium mobilization), positive allosteric modulator activity: increase in the EC20 acetylcholine response; settings: for Emax: PAM mode; for pEC50: increase in the EC20 acetylcholine response, read-out: PAM Activity Human M1 EC50
Description: as §1, §2
Calcium flux was measured using the Functional Drug Screening System (FDSS) 6000 (Hamamatsu Corporation, Tokyo, Japan) as an increase in the fluorescent static ratio. Compounds were applied to cells (20 μL, 2×) using the automated system of the FDSS 6000 at 4 s into the 300 s protocol and the data were collected at 1 Hz. […] Agonist activity was analyzed as a concentration-dependent increase in calcium mobilization upon compound addition. Emax values for agonist activity are expressed relative to the maximum for acetylcholine. Positive allosteric modulator activity was analyzed as a concentration-dependent increase in the EC20 acetylcholine response. Antagonist activity was analyzed as a concentration-dependent decrease in the EC80 acetylcholine response. Concentration-response curves were generated using a four-parameter logistical equation in XLfit curve fitting software (IDBS, Bridgewater, NJ) for Excel (Microsoft, Redmond, WA) or Prism (GraphPad Software, Inc., San Diego, CA).
Activity (EC50 and Emax) was determined in the mAChRM1 cell-based functional assay as described above and the data are shown in Table 16. The compound numbers correspond to the compound numbers used in Table 15.

Row | Structure (SMILES) | pEC50 (human mAChRM1 [1]) | Emax (human mAChRM1 [1]) | Emax (human mAChRM1 [2]) | pEC50 (human mAChRM1 [2])
1 | [2H]C([2H])([2H])n1cc2c(-c3cc(C)c(CN4Cc5ncccc5C4=O)c(F)c3)ccc(C(C)(C)O)c2n1 (single isomer, unassigned) [Compound 15, 6-(2-fluoro-4-(7-(2-hydroxypropan-2-yl)-2-(methyl-d3)-2H-indazol-4-yl)-6-methylbenzyl)-6,7-dihydro-5H-pyrrolo[3,4-b]pyridin-5-one] | 5.52 | 41% | 77% | 7.09
2 | [2H]C([2H])([2H])n1cc2c(-c3cc(F)c(CN4Cc5ncccc5C4=O)c(C4CC4)c3)ccc(C(C)(C)O)c2n1 (single isomer, unassigned) [Compound 16, 6-(2-cyclopropyl-6-fluoro-4-(7-(2-hydroxypropan-2-yl)-2-(methyl-d3)-2H-indazol-4-yl)benzyl)-6,7-dihydro-5H-pyrrolo[3,4-b]pyridin-5-one] | 5.69 | 54% | 78% | 7.18
3 | [2H]C1([2H])c2ncccc2C(=O)N1Cc1c(F)cc(-c2ccc(C(C)(C)O)c3nn(C)cc23)cc1C1CC1 (single isomer, unassigned) [Compound 143, 6-(2-cyclopropyl-6-fluoro-4-(7-(2-hydroxypropan-2-yl)-2-methyl-2H-indazol-4-yl)benzyl)-6,7-dihydro-5H-pyrrolo[3,4-b]pyridin-5-one-7,7-d2] | 5.28 | 68% | 83% | 7.02
4 | [2H]C1([2H])c2ncccc2C(=O)N1Cc1c(C)cc(-c2ccc(C(C)(C)O)c3nn(C)cc23)cc1F (single isomer, unassigned) [Compound 144, 6-(2-fluoro-4-(7-(2-hydroxypropan-2-yl)-2-methyl-2H-indazol-4-yl)-6-methylbenzyl)-6,7-dihydro-5H-pyrrolo[3,4-b]pyridin-5-one-7,7-d2] | 5.25 | 58% | 89% | 7.00
5 | [2H]C1([2H])c2ncccc2C(=O)N1Cc1c(C)cc(-c2ccc(C(C)(C)O)c3nn(C([2H])([2H])[2H])cc23)cc1F (single isomer, unassigned) [Compound 146, 6-(2-fluoro-4-(7-(2-hydroxypropan-2-yl)-2-(methyl-d3)-2H-indazol-4-yl)-6-methylbenzyl)-6,7-dihydro-5H-pyrrolo[3,4-b]pyridin-5one-7,7-d2] | ≤ 5.00 | 28% | 65% | 6.92
6 | [2H]C1([2H])c2ncccc2C(=O)N1Cc1c(F)cc(-c2ccc(C(C)(C)O)c3nn(C([2H])([2H])[2H])cc23)cc1C1CC1 (single isomer, unassigned) [Compound 147, 6-(2-cyclopropyl-6-fluoro-4-(7-(2-hydroxypropan-2-yl)-2-(methyl-d3)-2H-indazol-4-yl)benzyl)-6,7-dihydro-5H-pyrrolo[3,4-b]pyridin-5-one-7,7-d2] | 5.21 | 43% | 62% | 7.13
7 | Cn1cc2c(-c3cc(F)c(CN4Cc5ncccc5C4=O)c(F)c3)ccc(C(C)(C)O)c2n1 [Compound 1, 6-(2,6-difluoro-4-(7-(2-hydroxypropan-2-yl)-2-methyl-2H-indazol-4-yl)benzyl)-6,7-dihydro-5H-pyrrolo[3,4-b]pyridin-5-one] | 5.56 | 22% | 78% | 7.23
8 | Cc1cc(-c2ccc(C(C)(C)O)c3nn(C)cc23)cc(F)c1CN1Cc2ncccc2C1=O [Compound 2, 6-(2-Fluoro-4-(7-(2-hydroxypropan-2-yl)-2-methyl-2H-indazol-4-yl)-6-methylbenzyl)-6,7-dihydro-5H-pyrrolo[3,4-b]pyridin-5-one] | 5.08 | 33% | 87% | 7.19
9 | Cc1cc(-c2ccc(C(C)(C)O)cc2)cc(F)c1CN1Cc2cccnc2C1=O [Compound 118, 6-((3-fluoro-4′-(2-hydroxypropan-2-yl)-5-methyl-[1,1′-biphenyl]-4-yl)methyl)-5,6-dihydro-7H-pyrrolo[3,4-b]pyridin-7-one] | – | – | 67% | 5.78
